Source: patent US20250304537A1 (Repare Therapeutics Inc., priority 2022, published 2025)
pIC50: −log10 of the molar value. Read-outs that look alike come from different tables or passages of the source.

Test system: PKMYT1 (CDK1 pThr14) in FUOV1 cells
Test: PKMYT1 cell-based activity assay, CDK1 pThr14 AlphaLISA in FUOV1 cells
Conditions: read-out: FUOV-1 CDK1 pThr14 IC50
In short: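 IC50 was derived from AlphaLISA signal (excitation 680 nm, emission 615 nm) for phospho-Thr14 CDK1 in lysates. The detection antibodies were rabbit anti-pThr14 and mouse anti-total CDK1, each at 5 nM. FUOV1 ovarian cells were exposed to compound for 2 hours before lysis.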

pIC50 (2 h, 2 h compound incubation) | SMILES | also measured
 | Cc1ccc2[nH]ncc2c1-c1cc(-c2ccnc(OCC3(C#N)CC3)n2)nc(C(N)=O)c1N [Compound 324] | pIC50 (2 h, 2 h incubation): 6.52
 | Cc1ccc2n[nH]cc2c1-c1nc(-c2cc(F)cnc2N[C@H]2C[C@](O)(C(F)F)C2)nc(C(N)=O)c1N [Compound 897] | pIC50 (2 h, 2 hours with compound): 6.91
7.64 | Cc1ccc2[nH]ncc2c1-c1nc(-c2cc(F)c(F)cc2NCC2(C)COC2)nc(C(N)=O)c1N [Compound 503] | 
5.88 | Cc1ccc2[nH]ncc2c1-c1nc(-c2cccnc2NC2CCN(C)C(=O)C2)nc(C(N)=O)c1N (stereo not shown) [Compound 549] | 
 | [2H]C([2H])([2H])c1ccc2[nH]ncc2c1-c1nc(-c2ccc(C(F)F)nc2Nc2nc(C)ncc2F)nc(C(N)=O)c1N [Compound 973] | pIC50 (2 h, 2 hours with compound): 7.28
5.79 | Cc1ccc2[nH]ncc2c1-c1nc(-c2ccc(F)cc2Nc2cc(C3(C#N)CC3)ccn2)nc(C(N)=O)c1N [Compound 698] | 
 | Cc1c(F)cc2[nH]ncc2c1-c1nc(-c2cccnc2NC2CC2)nc(C(N)=O)c1N [Compound 848] | pIC50 (2 h, 2 hours with compound): 7.11
 | N#Cc1ccc(-c2nc(C(N)=O)c(N)c(-c3c(Cl)ccc4[nH]ncc34)n2)c(Nc2ncccn2)c1 [Compound 958] | pIC50 (2 h, 2 hours with compound): 7.49
8.70 | Cc1ccc2[nH]ncc2c1-c1nc(-c2ccc(F)cc2Nc2nccnc2C)nc(C(N)=O)c1N [Compound 640] | 
7.57 | Cc1ccc2[nH]ncc2c1-c1nc(-c2ccc(F)cc2Nc2cccnc2C#N)nc(C(N)=O)c1N [Compound 674] | 
< 5.00 | Cc1ccc2[nH]ncc2c1-c1nc(-c2cccnc2N2CCOCC2)nc(C(N)=O)c1N [Compound 662] | 
 | Cc1ccc2[nH]ncc2c1-c1nc(-c2cc(F)cnc2N[C@H]2CC[C@@H](O)CC2)nc(C(N)=O)c1N [Compound 828] | pIC50 (2 h, 2 hours with compound): 7.52
8.52 | Cc1ccc(-c2nc(C(N)=O)c(N)c(-c3c(C)ccc4[nH]ncc34)n2)c(Nc2ncccc2C)n1 [Compound 687] | 
5.88 | Cc1ccc2[nH]ncc2c1-c1cc2c(oc3ccc(O[C@H]4CCOC4)nc32)c(C(N)=O)c1N [Compound 574] | 
6.31 | Cc1ccc2[nH]ncc2c1-c1nc(-c2ccccc2CO)nc(C(N)=O)c1N [Compound 779] | 
7.77 | Cc1ccc2[nH]ncc2c1-c1nc(-c2ccc(Cl)nc2Nc2nccnc2Cl)nc(C(N)=O)c1N [Compound 770] | 
 | Cc1ccc2[nH]ncc2c1-c1nc(-c2cc(F)cnc2NC2CCN(CC(F)(F)F)CC2)nc(C(N)=O)c1N [Compound 863] | pIC50 (2 h, 2 hours with compound): 5.68
7.89 | Cc1ncc(F)c(Nc2cc(F)ccc2-c2nc(C(N)=O)c(N)c(-c3c(C)ccc4[nH]ncc34)n2)n1 [Compound 714] | 
 | Cc1ccc2[nH]ncc2c1-c1nc(-c2ccccc2[S+](C)[O-])nc(C(N)=O)c1N (stereo not shown) [Compound 820] | pIC50 (2 h, 2 hours with compound): 6.64
6.59 | COCCCNc1ncccc1-c1nc(C(N)=O)c(N)c(-c2c(C)ccc3[nH]ncc23)n1 [Compound 537] | 
7.25 | Cc1ccc2[nH]ncc2c1-c1nc(-c2cccnc2Nc2nccnc2C)nc(C(N)=O)c1N [Compound 728] | 
7.48 | Cc1ccc2[nH]ncc2c1-c1nc(-c2ccc(Cl)nc2Nc2ncccn2)nc(C(N)=O)c1N [Compound 759] | 

pIC50 (2 h, 2 h compound incubation) | SMILES | also measured
7.08 | Cc1ccc2[nH]ncc2c1-c1nc(-c2ccc(F)nc2Nc2ncccn2)nc(C(N)=O)c1N [Compound 758] | 
6.90 | Cc1ccc2[nH]ncc2c1-c1nc(-c2ccc(F)cc2Nc2ccnc(C(F)(F)F)c2)nc(C(N)=O)c1N [Compound 585] | 
8.70 | Cc1ccc2[nH]ncc2c1-c1nc(-c2cccnc2Nc2nc(F)ccc2F)nc(C(N)=O)c1N [Compound 660] | 
7.89 | Cc1ccc(F)nc1Nc1ncccc1-c1nc(C(N)=O)c(N)c(-c2c(C)ccc3[nH]ncc23)n1 [Compound 724] | 
7.62 | Cc1ccc2[nH]ncc2c1-c1cc2c(oc3ccc(NC4CCOCC4)nc32)c(C(N)=O)c1N [Compound 575] | 
 | Cc1ccc2[nH]ncc2c1-c1nc(-c2ccc(F)cc2Nc2ccnc(C3CC3)n2)nc(C(N)=O)c1N [Compound 940] | pIC50 (2 h, 2 hours with compound): 6.57
7.42 | Cc1ccc(C)c(Nc2ncccc2-c2nc(C(N)=O)c(N)c(-c3c(C)ccc4[nH]ncc34)n2)n1 [Compound 707] | 
8.15 | Cc1ccc2[nH]ncc2c1-c1nc(-c2cccnc2Nc2ncccc2C(F)F)nc(C(N)=O)c1N [Compound 720] | 
7.54 | Cc1ccc2[nH]ncc2c1-c1nc(-c2cccnc2Nc2nccnc2Cl)nc(C(N)=O)c1N [Compound 763] | 
 | [2H]C([2H])([2H])c1ccc2[nH]ncc2c1-c1nc(-c2cccnc2Nc2nc(C)ccc2F)nc(C(N)=O)c1N [Compound 824] | pIC50 (2 h, 2 hours with compound): 8.70
 | Cc1ccc2[nH]ncc2c1-c1nc(-c2cccnc2NC(C)C)cc(C(N)=O)c1N [Compound 866, 5-amino-2′-(isopropylamino)-6-(5-methyl-1H-indazol-4-yl)-[2,3′-bipyridine]-4-carboxamide] | pIC50 (2 h, 2 hours with compound): 7.21
7.82 | Cc1ccc2[nH]ncc2c1-c1nc(-c2cccnc2NC2CCCOC2)nc(C(N)=O)c1N (stereo not shown) [Compound 582] | 
 | NC(=O)c1nc(-c2ccc(C(F)F)nc2Nc2ncccc2F)nc(-c2c(F)ccc3[nH]ncc23)c1N [Compound 970] | pIC50 (2 h, 2 hours with compound): 7.40
7.32 | Cc1ccc2[nH]ncc2c1-c1nc(-c2ccc(F)cc2Nc2cnccc2C#N)nc(C(N)=O)c1N [Compound 699] | 
6.74 | Cc1cncc(Nc2nc(C)ccc2-c2nc(C(N)=O)c(N)c(-c3c(C)ccc4[nH]ncc34)n2)n1 [Compound 688] | 
7.48 | Cc1ccc2[nH]ncc2c1-c1nc(-c2ncccc2NCC(F)(F)F)nc(C(N)=O)c1N [Compound 538] | 
6.71 | Cc1ccc2[nH]ncc2c1-c1nc(-c2cc(F)cnc2NCC2(O)CC2)nc(C(N)=O)c1N [Compound 692] | 
6.82 | Cc1ccc2[nH]ncc2c1-c1nc(-c2ccc(F)cc2Nc2ncc(C#N)cn2)nc(C(N)=O)c1N [Compound 535] | 
 | Cc1ccc2[nH]ncc2c1-c1cc2c(oc3ccc(NC4CCOCC4)nc32)c(C(N)=O)c1N (atropisomer, axis not shown) [Compound 762] | pIC50 (2 h compound incubation): 7.62
6.91 | CSc1nccc(Nc2cc(F)ccc2-c2nc(C(N)=O)c(N)c(-c3c(C)ccc4[nH]ncc34)n2)n1 [Compound 583] | 
 | Cc1ccc(Cl)nc1Nc1nc(F)ccc1-c1nc(C(N)=O)c(N)c(-c2c(C)cc(F)c3[nH]ncc23)n1 [Compound 877] | pIC50 (2 h, 2 hours with compound): 7.43
 | Cc1cc(F)c2[nH]ncc2c1-c1nc(-c2cc(F)cnc2N[C@H]2CCOC[C@H]2F)nc(C(N)=O)c1N [Compound 887] | pIC50 (2 h, 2 hours with compound): 6.98

pIC50 (2 h, 2 h compound incubation) | SMILES | also measured
 | [2H]C([2H])([2H])c1ccc(-c2nc(C(N)=O)c(N)c(-c3c(C([2H])([2H])[2H])ccc4[nH]ncc34)n2)c(Nc2ncccn2)n1 [Compound 960] | pIC50 (2 h, 2 hours with compound): 7.40
 | Cc1ccc2[nH]ncc2c1-c1nc(-c2cc(F)cnc2N[C@@H]2C[C@@H]3CC[C@H]2O3)nc(C(N)=O)c1N [Compound 837] | pIC50 (2 hours with compound): 7.66
 | NC(=O)c1nc(-c2cccnc2NC2CC2)nc(-c2c(Cl)ccc3[nH]ncc23)c1N [Compound 919] | pIC50 (2 h, 2 hours with compound): 7.04
8.05 | Cc1ccc(F)c(Nc2ncc(F)cc2-c2nc(C(N)=O)c(N)c(-c3c(C)ccc(O)c3C)n2)n1 [Compound 715, 5-amino-2-[5-fluoro-2-[(3-fluoro-6-methyl-2-pyridyl)amino]-3-pyridyl]-6-(3-hydroxy-2,6-dimethyl-phenyl)pyrimidine-4-carboxamide] | 
6.33 | Cc1ccc2[nH]ncc2c1-c1nc(-c2cccnc2NCC2COCCO2)nc(C(N)=O)c1N (stereo not shown) [Compound 642] | 
 | Cc1cc(F)c2[nH]ncc2c1-c1nc(-c2cccnc2NC2CC2)nc(C(N)=O)c1N [Compound 871] | pIC50 (2 h, 2 hours with compound): 7.41
 | Cc1ccc2[nH]ncc2c1-c1nc(-c2cc(F)cnc2N[C@H]2COC[C@@H]2O)nc(C(N)=O)c1N [Compound 813] | pIC50 (2 h, 2 hours with compound): 6.91
7.66 | Cc1ccc2[nH]ncc2c1-c1nc(-c2cccnc2NC2(C)CCOC2)nc(C(N)=O)c1N (stereo not shown) [Compound 591] | 
6.82 | Cc1ccc2[nH]ncc2c1-c1nc(-c2cccnc2Nc2cccc(C#N)c2)nc(C(N)=O)c1N [Compound 630] | 
8.40 | Cc1ccc(-c2nc(C(N)=O)c(N)c(-c3c(C)ccc4[nH]ncc34)n2)c(Nc2nccnc2Cl)n1 [Compound 721] | 
6.66 | Cc1ccc2[nH]ncc2c1-c1nc(-c2nccnc2NCC(F)(F)F)nc(C(N)=O)c1N [Compound 555, 5-amino-6-(5-methyl-1H-indazol-4-yl)-2-(3-((2,2,2-trifluoroethyl)amino)pyrazin-2-yl)pyrimidine-4-carboxamide] | 
5.15 | Cc1ccc2[nH]ncc2c1-c1cc2c(oc3ccc(OCC(F)(F)F)nc32)c(C(N)=O)c1N [Compound 560] | 
 | Cc1ccc2[nH]ncc2c1-c1nc(-c2ccc(F)nc2Nc2ncccc2C(F)F)nc(C(N)=O)c1N [Compound 945] | pIC50 (2 h, 2 hours with compound): 7.64
7.60 | Cc1ccc(-c2nc(C(N)=O)c(N)c(-c3c(C)ccc4[nH]ncc34)n2)c(Nc2ncccn2)n1 [Compound 764] | 
6.22 | Cc1ccc2[nH]ncc2c1-c1nc(-c2cccnc2NC2CCOC(C)(C)C2)nc(C(N)=O)c1N (stereo not shown) [Compound 592] | 
8.30 | Cc1ccc2[nH]ncc2c1-c1nc(-c2ccc(Cl)nc2Nc2ncccc2F)nc(C(N)=O)c1N [Compound 781] | 
6.44 | Cc1ccc2[nH]ncc2c1-c1nc(-c2ccc(F)cc2Nc2cccc(F)c2)nc(C(N)=O)c1N [Compound 663] | 
7.74 | COc1ccc(-c2nc(C(N)=O)c(N)c(-c3c(C)ccc4[nH]ncc34)n2)c(Nc2ncccc2C)n1 [Compound 709] | 
7.46 | Cc1ccc2[nH]ncc2c1-c1nc(-c2cccnc2N[C@@H]2CC[C@H](O)C2)nc(C(N)=O)c1N [Compound 783] | 
7.02 | COCCNc1ccc2oc3c(C(N)=O)c(N)c(-c4c(C)ccc5[nH]ncc45)cc3c2n1 [Compound 558, 7-amino-2-((2-methoxyethyl)amino)-8-(5-methyl-1H-indazol-4-yl)benzofuro[3,2-b]pyridine-6-carboxamide] | 
